From patent US11198695B2, “Fused ring derivative having MGAT-2 inhibitory activity” (Shionogi & Co., Ltd., priority 2017, dated 2021)
In brackets after ≈: the same amount, converted by molar mass. Several values for one entry are separate records, joined by “and”; a condition that tells them apart may be missing. Equal entries are not always repeated. Where two headings read alike, the source gives them in different places.

Columns and labels:
recombinant human MGAT2 = recombinant human MGAT2 (Homo sapiens (Human), UniProt Q3SYC2); experiment: Measurement of human MGAT2 inhibitory activity; assay type: biochemical
Outline: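 RapidFire ESI-MS read-out of the diolein/diolein-d5 peak ratio gave % inhibition, with no-enzyme and full-enzyme wells as 100% and 0%. Reactions ran 1 h at room temperature at pH 7.4 (phosphate, 2 mmol/L DTT), using Flag-tagged human MGAT2 membranes from Sf9 cells and a substrate solution of 30 μmol/L 2-oleoylglycerol and 10 μmol/L oleoyl-CoA.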

[1] = Metabolism stability test; assay type: in vitro ADME; settings: human liver microsomes, 30 minutes, 37° C., NADPH, 0.5 μmol/L of test compound
Method: Using commercially available pooled human hepatic microsomes, the compound of the present invention was reacted for a constant time, a remaining rate was calculated by comparing a reacted sample and an unreacted sample, thereby, a degree of metabolism of the compound of the present invention in liver was assessed.
A reaction was performed (oxidative reaction) at 37° C. for 0 minute or 30 minutes in the presence of 1 mmol/L NADPH in 0.2 mL of a buffer (50 mmol/L Tris-HCl pH 7.4, 150 mmol/L potassium chloride, 10 mmol/L magnesium chloride) containing 0.5 mg protein/mL of human liver microsomes. After the reaction, 50 μL of the reaction solution was added to 100 μL of a methanol/acetonitrile=1/1 (v/v) solution, mixed and centrifuged at 3000 rpm for 15 minutes. The compound of the present invention in the supernatant was quantified by LC/MS/MS, and a remaining amount of the compound of the present invention after the reaction was calculated, letting a compound amount at 0 minute reaction time to be 100%. (Result) Remaining rate was shown at 0.5 μmol/L of test compound.

[2] = Solubility test (1% DMSO addition, pH 6.8 artificial intestinal juice); assay type: physicochemical; settings: 16 hours at 25° C.; for solubility at 16 h: pH 6.8 artificial intestinal juice with 1% DMSO, kinetic from dmso stock
Method: The solubility of the compound of the present invention was determined under 1% DMSO addition conditions. 10 mmol/L solution of the compound was prepared with DMSO, and 6 μL of the solution of the compound of the present invention was added to 594 μL of pH 6.8 artificial intestinal juice (118 mL of 0.2 mol/L NaOH test solution and water were added to 250 mL of 0.2 mol/L potassium dihydrogen phosphate test solution to reach 1000 mL). The mixture was left standing for 16 hours at 25° C., and the mixture was vacuum-filtered. The filtrate was two-fold diluted with methanol/water=1/1 (V/V), and the compound concentration in the filtrate was measured with HPLC or LC/MS/MS by the absolute calibration method.

[3] = BA test (oral absorption); assay type: in vivo; settings: plasma; oral vs intravenous administration, mice or SD rats
Method: Materials and Methods for Experiments to Evaluate Oral Absorption
(1) Animals: the mice or SD rats were used.
(2) Breeding conditions: the mice or SD rats were allowed to freely take solid food and sterilized tap water.
(3) Setting of dosage and grouping: Oral administration and intravenous administration were performed with a predetermined dosage. Grouping was set as below. (dosage changed per compound)
Oral administration: 1 to 30 mg/kg (n=2 to 3)
Intravenous administration: 0.5 to 10 mg/kg (n=2 to 3)
(4) Preparation of administration solution: Oral administration was performed in the form of a suspension or a solution. Intravenous administration was performed after solubilization.
(5) Routes of administration: Oral administration was performed mandatory into the stomach by oral sonde. […]
(6) Evaluation items: blood was collected over time, and the plasma concentration of the compound of the present invention was measured by LC/MS/MS.
(7) Statistical analysis: regarding the transition of the plasma concentration of the compound of the present invention, the area under the plasma concentration-time curve (AUC) was calculated by non-linear least squares program WinNonlin (registered trademark), and the bioavailability (BA) of the compound of the present invention was calculated from the AUCs of the oral administration group and intravenous administration group.

Powder solubility test = assay type: physicochemical; settings: pH 6.8, aqueous buffer, thermodynamic from solid, JP-2 solution, 37° C.
Method: Appropriate quantity of the compound of the present invention was put in suitable containers. 200 μL of JP-1 solution (water was added to 2.0 g of sodium chloride and 7.0 mL of hydrochloric acid to reach 1000 mL), 200 μL of JP-2 solution (500 mL of water was added to 500 mL of phosphate buffer (pH 6.8)) or 20 mmol/L sodium taurocholate (TCA)/JP-2 solution (JP-2 solution was added to 1.08 g of TCA to reach 100 mL) was independently added to each container. When total amount was dissolved after adding the test reagent, the compound of the present invention was added appropriately. After sealing and shaking at 37° C. for 1 hour, solution is filtrated and 100 μL of methanol is added to 100 μL of each filtrate to dilute two-fold. The dilution rate is changed as necessary. After checking that there was no bubble and deposit, the container was sealed and shaken. The compound of the present invention was measured using HPLC by absolute calibration curve method.

CYP1A2 = CYP1A2 (Homo sapiens (Human), UniProt P05177); experiment: CYP inhibition test (7-ethoxyresorufin O-deethylation); assay type: in vitro ADME; settings: pooled human liver microsomes
Description: (§1) Using commercially available pooled human hepatic microsome, and employing, as markers, 7-ethoxyresorufin O-deethylation (CYP1A2), tolbutamide methyl-hydroxylation (CYP2C9), mephenytoin 4′-hydroxylation (CYP2C19), dextromethorphan O-demethylation (CYP2D6), and terfenadine hydroxylation (CYP3A4) as typical substrate metabolism reactions of human main five CYP enzyme forms (CYP1A2, 2C9, 2C19, 2D6, 3A4), an inhibitory degree of each metabolite production amount by the compound of the present invention was assessed. […]
(§2) As a reaction solution, each five kinds of substrates, human liver microsomes, or compound of the present invention in 50 mmol/L Hepes buffer were added to a 96-well plate at the composition as described above, and NADPH, as a cofactor was added to initiate metabolism reactions. […] After the centrifugation at 3000 rpm for 15 minutes, resorufin (CYP1A2 metabolite) in the supernatant was quantified by a fluorescent multilabel counter or LC/MS/MS, and tolbutamide hydroxide (CYP2C9 metabolite), mephenytoin 4′ hydroxide (CYP2C19 metabolite), dextrorphan (CYP2D6 metabolite), and terfenadine alcohol (CYP3A4 metabolite) were quantified by LC/MS/MS.
(§3) Addition of only DMSO being a solvent dissolving a drug to a reaction system was adopted as a control (100%). Remaining activity (%) was calculated. […]

CYP2C9 = CYP2C9 (Homo sapiens (Human), UniProt P11712); experiment: CYP inhibition test (tolbutamide methyl-hydroxylation); assay type: in vitro ADME; settings: pooled human liver microsomes
Description: as §1, §2, §3

CYP2C19 = CYP2C19 (Homo sapiens (Human), UniProt P33261); experiment: CYP inhibition test (mephenytoin 4'-hydroxylation); assay type: in vitro ADME; settings: pooled human liver microsomes
Description: as §1, §2, §3

CYP2D6 = CYP2D6 (Homo sapiens (Human), UniProt P10635); experiment: CYP inhibition test (dextromethorphan O-demethylation); assay type: in vitro ADME; settings: pooled human liver microsomes
Description: as §1, §2, §3

CYP3A4 [4] = biological target: T1, CYP3A4 (Homo sapiens (Human), UniProt P08684); experiment: CYP inhibition test (terfenadine hydroxylation); assay type: in vitro ADME; settings: pooled human liver microsomes
Description: as §1, §2, §3

CYP3A4 [5] = biological target: T1, CYP3A4; experiment: CYP3A4 (MDZ) MBI test; assay type: in vitro ADME; settings: pooled human liver microsomes, preincubation 0 or 30 min
Method: CYP3A4 (MDZ) MBI test is a test of investigating mechanism based inhibition (MBI) potential on CYP3A4 by the enhancement of inhibitory degree of a metabolic reaction caused by the compound of the present invention. CYP3A4 inhibition was evaluated using pooled human liver microsomes by 1-hydroxylation reaction of midazolam (MDZ) as a marker reaction. […]
Pooled human liver microsomes and a solution of the compound of the present invention in K-Pi buffer (pH 7.4) as a pre-reaction solution were added to a 96-well plate at the composition of the pre-reaction. […] The plate on which each index reaction had been performed was centrifuged at 3000 rpm for 15 minutes, and thereafter 1-hydroxylated midazolam in the supernatant was quantified by LC/MS/MS.
The sample adding DMSO as a solvent to a reaction system instead of a solution dissolving the compound of the present invention was adopted as a control (100%). Remaining activity (%) was calculated at each concentration of the compound of the present invention compared to a control, and IC value was calculated by reverse-presumption by a logistic model using a concentration and an inhibition rate. […]

[6] = read-out: IC50 (concentration exhibiting 50% enzyme inhibition), Table 52
[7] = read-out: IC50 (concentration exhibiting 50% enzyme inhibition), Table 53

recombinant human MGAT2, sequence (Q3SYC2 whole entry): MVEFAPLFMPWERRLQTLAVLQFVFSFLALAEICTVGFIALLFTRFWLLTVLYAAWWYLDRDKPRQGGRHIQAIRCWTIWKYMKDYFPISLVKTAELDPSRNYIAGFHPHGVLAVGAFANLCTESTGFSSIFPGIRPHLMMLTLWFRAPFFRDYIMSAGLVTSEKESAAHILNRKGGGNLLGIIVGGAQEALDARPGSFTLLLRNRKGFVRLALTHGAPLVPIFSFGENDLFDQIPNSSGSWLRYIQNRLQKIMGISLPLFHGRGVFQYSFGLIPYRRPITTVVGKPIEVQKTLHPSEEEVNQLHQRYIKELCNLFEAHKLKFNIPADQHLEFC
T1 sequence (P08684 whole entry): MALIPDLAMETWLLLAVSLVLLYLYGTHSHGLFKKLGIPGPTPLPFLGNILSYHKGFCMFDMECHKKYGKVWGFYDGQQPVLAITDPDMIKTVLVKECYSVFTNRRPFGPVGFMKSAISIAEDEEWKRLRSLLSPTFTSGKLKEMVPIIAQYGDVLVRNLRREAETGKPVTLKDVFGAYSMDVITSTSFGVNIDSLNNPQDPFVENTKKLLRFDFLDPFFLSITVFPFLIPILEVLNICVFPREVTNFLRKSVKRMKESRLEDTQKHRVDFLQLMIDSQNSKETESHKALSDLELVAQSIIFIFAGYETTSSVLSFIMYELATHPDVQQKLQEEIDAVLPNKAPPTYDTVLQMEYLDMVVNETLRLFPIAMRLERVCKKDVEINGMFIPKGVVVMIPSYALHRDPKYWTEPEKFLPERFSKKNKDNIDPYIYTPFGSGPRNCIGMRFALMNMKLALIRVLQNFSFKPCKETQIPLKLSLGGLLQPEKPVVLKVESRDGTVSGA
CYP1A2, sequence (P05177 whole entry): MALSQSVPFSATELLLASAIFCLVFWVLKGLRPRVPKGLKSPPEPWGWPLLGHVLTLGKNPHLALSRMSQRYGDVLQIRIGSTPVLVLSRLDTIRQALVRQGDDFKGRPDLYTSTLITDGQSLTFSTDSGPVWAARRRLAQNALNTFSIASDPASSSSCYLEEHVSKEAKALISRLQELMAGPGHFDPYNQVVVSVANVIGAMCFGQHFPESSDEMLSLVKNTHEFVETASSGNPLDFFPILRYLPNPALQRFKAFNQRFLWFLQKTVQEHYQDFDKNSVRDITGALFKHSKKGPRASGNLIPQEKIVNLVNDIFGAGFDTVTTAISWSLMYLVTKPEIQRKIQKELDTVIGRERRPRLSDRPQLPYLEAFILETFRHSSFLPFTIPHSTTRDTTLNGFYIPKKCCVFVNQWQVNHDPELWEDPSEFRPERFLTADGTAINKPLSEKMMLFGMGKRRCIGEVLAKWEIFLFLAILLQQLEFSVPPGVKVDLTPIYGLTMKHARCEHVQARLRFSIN
CYP2C19, sequence (P33261 whole entry): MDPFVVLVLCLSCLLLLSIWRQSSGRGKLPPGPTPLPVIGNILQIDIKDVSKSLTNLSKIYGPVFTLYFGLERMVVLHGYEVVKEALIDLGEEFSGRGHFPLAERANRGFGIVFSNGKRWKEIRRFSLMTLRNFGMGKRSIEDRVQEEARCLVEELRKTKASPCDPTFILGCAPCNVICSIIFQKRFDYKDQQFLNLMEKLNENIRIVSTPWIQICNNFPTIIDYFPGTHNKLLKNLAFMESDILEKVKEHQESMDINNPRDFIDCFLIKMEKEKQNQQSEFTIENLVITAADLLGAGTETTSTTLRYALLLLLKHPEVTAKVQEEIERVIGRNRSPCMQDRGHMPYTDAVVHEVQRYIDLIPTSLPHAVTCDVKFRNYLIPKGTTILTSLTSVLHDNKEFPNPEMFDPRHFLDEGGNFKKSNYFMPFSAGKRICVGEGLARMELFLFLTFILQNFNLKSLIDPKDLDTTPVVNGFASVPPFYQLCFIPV
CYP2C9, sequence (P11712 whole entry): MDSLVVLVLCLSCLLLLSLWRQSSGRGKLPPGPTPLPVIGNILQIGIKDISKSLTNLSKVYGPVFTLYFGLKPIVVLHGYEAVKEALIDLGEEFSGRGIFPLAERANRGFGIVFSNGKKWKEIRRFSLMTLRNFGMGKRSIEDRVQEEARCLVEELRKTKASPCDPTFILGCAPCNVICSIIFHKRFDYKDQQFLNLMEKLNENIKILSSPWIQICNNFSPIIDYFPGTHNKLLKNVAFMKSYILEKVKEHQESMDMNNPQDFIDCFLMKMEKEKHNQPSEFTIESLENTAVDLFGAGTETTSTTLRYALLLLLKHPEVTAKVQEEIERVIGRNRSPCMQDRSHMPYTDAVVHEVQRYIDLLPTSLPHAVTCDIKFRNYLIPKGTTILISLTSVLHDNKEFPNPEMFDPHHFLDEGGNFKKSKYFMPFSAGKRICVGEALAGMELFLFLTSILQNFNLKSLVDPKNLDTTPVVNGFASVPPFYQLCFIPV
CYP2D6, sequence (P10635 whole entry): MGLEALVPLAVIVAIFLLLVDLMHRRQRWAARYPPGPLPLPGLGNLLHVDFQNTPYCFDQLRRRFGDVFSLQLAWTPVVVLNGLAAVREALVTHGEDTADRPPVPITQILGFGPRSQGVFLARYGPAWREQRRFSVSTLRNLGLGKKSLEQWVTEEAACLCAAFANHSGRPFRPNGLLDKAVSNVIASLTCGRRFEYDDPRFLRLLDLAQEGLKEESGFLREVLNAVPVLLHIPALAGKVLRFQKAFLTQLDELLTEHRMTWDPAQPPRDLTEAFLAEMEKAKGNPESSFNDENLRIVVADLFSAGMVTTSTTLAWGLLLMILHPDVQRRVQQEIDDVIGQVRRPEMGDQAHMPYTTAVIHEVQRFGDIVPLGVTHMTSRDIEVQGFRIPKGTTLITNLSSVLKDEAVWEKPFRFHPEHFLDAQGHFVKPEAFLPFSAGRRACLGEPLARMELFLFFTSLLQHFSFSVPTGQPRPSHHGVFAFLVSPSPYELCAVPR

Row | IC50 (recombinant human MGAT2; [6]) [nM] | Remaining rate (%) [1] [%] | solubility at 16 h [2] [µM] | IC50 (recombinant human MGAT2; [7]) | SMILES | other results
1 | 7 | 89 | > 50 |  | CS(=O)(=O)CC(=O)Nc1c2c(nn1-c1ccc(C#N)cn1)C[C@]1(CCc3cc(N4CC(F)(F)C4)ccc31)NC2=O [Compound I-67] | 
2 | 3.3 | 89 | > 50 |  | CS(=O)(=O)CC(=O)Nc1c2c(nn1-c1ccc(C#N)cn1)C[C@@]1(CCc3cc(OCC(F)(F)F)ccc31)NC2=O [Compound I-167] | 
3 | 5.1 | 100 | > 50 |  | CS(=O)(=O)CC(=O)Nc1c2c(nn1-c1ccc(C#N)cn1)C[C@](c1ccc(OCC(F)(F)F)cc1F)(C(F)(F)F)NC2=O [Compound I-170] | 
4 | 5.6 | 94 | > 50 |  | O=C1N[C@@]2(CCOc3cc(OCCCC(F)(F)F)ccc32)Cc2nn(CCC3CC3)c(-c3nn[nH]n3)c21 [Compound I-200] | 
5 |  | 98.4 | > 50 | 3.81 nM | Cc1ccc(-n2nc3c(c2NC(=O)CS(C)(=O)=O)C(=O)N[C@](C)(c2ccc(OCC(F)(F)F)cc2F)C3)nc1 [II-94] | bioavailability [3]: 73%; solubility at 1 h (Powder solubility test): 3.4 µM (≈ 1.94 µg/mL)
6 |  | 95.6 | > 50 |  | Cc1ccc(-n2nc3c(c2NC(=O)CS(C)(=O)=O)C(=O)N[C@@]2(CCc4cc(OCCCC(F)(F)F)ccc42)C3)nn1 [II-103] | IC50 (CYP1A2): > 20000 nM; IC50 (CYP2C9): > 20000 nM; IC50 (CYP2C19): > 20000 nM; IC50 (CYP2D6): > 20000 nM; IC50 (CYP3A4 [4]): > 20000 nM; CYP3A4 (MDZ) MBI judgement (Shifted IC) (CYP3A4 [5]): Negative (a case that Shifted IC was 1.0 or less was regarded as Negative)
7 |  | 89.7 |  | 2.91 nM | CS(=O)(=O)CC(=O)Nc1c2c(nn1CCCOC(F)(F)F)C[C@@]1(CCOc3cc(OCC(F)(F)F)ccc31)NC2=O [II-121] | Solubility [2]: >50 µM
8 |  | 98.7 | > 50 | 9.13 nM and < 1 nM | Cc1ccc(-n2nc3c(c2C(=O)NS(=O)(=O)C2CC2)C(=O)N[C@@]2(CCc4cc(OCC(F)(F)F)ccc42)C3)nc1 [II-202] | 
9 |  | 94.7 | > 50 | 0.224 nM | Cc1cc(-n2nc3c(c2NC(=O)CS(C)(=O)=O)C(=O)N[C@@]2(CCOc4cc(OCCCC(F)(F)F)ccc42)C3)no1 [II-233] | 
10 |  | 99.9 | > 50 | 1.26 nM | Cc1ccc(-n2nc3c(c2NC(=O)C2CS(=O)(=O)C2)C(=O)N[C@@]2(CCOc4cc(OCC(F)(F)F)ccc42)C3)nc1 [II-270] | 
11 |  | 102 | > 50 | < 1 nM | CS(=O)(=O)CC(=O)Nc1c2c(nn1-c1ccc(F)cn1)C[C@]1(CCOc3cc(OCC(F)(F)F)ccc31)NC2=O [II-295] | 
